Values of other authors, collected in patent publication US20050112193A1, “Immediate-release formulations of acid-labile pharmaceutical compositions” (priority 2003, published 2005).
Read-outs that look alike come from different tables or passages of the source.

Experiments:
[1] = for time to undergo 50% degradation: acidic stomach / gastric environment, pH of 1.2 given for pantoprazole sodium and rabeprazole sodium
[2] = in water

Cc1c(OCC(F)(F)F)ccnc1C[S+]([O-])c1nc2ccccc2[nH]1 (stereo not drawn) [Lansoprazole]
time to undergo 50% degradation [1]: 2 min
time for 50% of drug to be degraded (t ½) ([1]; pH 1.2): 0.0333 h
time for 50% of drug to be degraded (t ½) ([1]; pH 5.1): 1.5 h
time for 50% of drug to be degraded (t ½) ([1]; pH 6): 6.4 h
time for 50% of drug to be degraded (t ½) ([1]; pH 7): 35 h
pKa: 4.1
Solubility ([2]; listed as Lansoprazole base): very slightly soluble

COc1ccc2[nH]c([S+]([O-])Cc3ncc(C)c(OC)c3C)nc2c1 (stereo not drawn) [Omeprazole, 5-methoxy-2-[[(4-methoxy-3,5-dimethyl-2-pyridinyl)methyl]sulfinyl]-1H-benzimidazole]
time to undergo 50% degradation [1]: less than 3 minutes
time for 50% of drug to be degraded (t ½) ([1]; pH 1.2): 0.0467 h
time for 50% of drug to be degraded (t ½) ([1]; pH 5.1): 1.4 h
time for 50% of drug to be degraded (t ½) ([1]; pH 6): 7.3 h
time for 50% of drug to be degraded (t ½) ([1]; pH 7): 39 h
pKa: 3.9
Solubility ([2]; listed as Omeprazole base): slightly soluble

COc1ccnc(C[S+]([O-])c2nc3ccc(OC(F)F)cc3[nH]2)c1OC (stereo not drawn) [Pantoprazole sodium]
time to undergo 50% degradation [1]: less than 5 minutes
time for 50% of drug to be degraded (t ½) ([1]; pH 1.2): 0.0767 h
time for 50% of drug to be degraded (t ½) ([1]; pH 5): 2.8 h
time for 50% of drug to be degraded (t ½) ([1]; pH 5.1): 4.7 h
time for 50% of drug to be degraded (t ½) ([1]; pH 6): 21 h
time for 50% of drug to be degraded (t ½) ([1]; pH 7): 73 h
pKa: 3
Solubility [2]: very soluble

COCCCOc1ccnc(C[S+]([O-])c2nc3ccccc3[nH]2)c1C (stereo not drawn) [Rabeprazole sodium]
time to undergo 50% degradation [1]: less than 1.5 minutes
time for 50% of drug to be degraded (t ½) ([1]; pH 1.2): 0.0217 h
time for 50% of drug to be degraded (t ½) ([1]; pH 5.1): 0.12 h
pKa: 4.9
Solubility [2]: Very soluble
